Experimental data published in PubChem BioAssay (NCI).
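Five concentrations, 48 hours, 96-well plates. TGI marks complete inhibition of growth.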

Experiments:
Experiment in all cases: NCI tumour cell line growth inhibition, 48 h
HOP-18 NSCLC = system: HOP-18 NSCLC
DMS 114 small cell lung = system: DMS 114 small cell lung
DLD-1 colon = system: DLD-1 colon
SNB-78 CNS = system: SNB-78 CNS
DMS 273 small cell lung = system: DMS 273 small cell lung
LXFL 529 NSCLC = system: LXFL 529 NSCLC
M19-MEL melanoma = system: M19-MEL melanoma
XF 498 CNS = system: XF 498 CNS
RXF-631 renal = system: RXF-631 renal

Compound	TGI (HOP-18 NSCLC) [µM]	TGI (DMS 114 small cell lung) [µM]	TGI (DLD-1 colon) [µM]	TGI (SNB-78 CNS) [µM]	TGI (DMS 273 small cell lung) [µM]	TGI (LXFL 529 NSCLC) [µM]	TGI (M19-MEL melanoma) [µM]	TGI (XF 498 CNS) [µM]	TGI (RXF-631 renal) [µM]
CC(OC1CC(=O)CC2C(=O)C=CC(=O)C12)c1ccccc1 (stereo unspecified)	32.2	23	26.7	36.3	33.8	19.8	29.8	29.4	
O=[N+]([O-])c1cc2c(cc1O)[nH]c1cccc([N+](=O)[O-])c12	> 100	> 100	> 100	> 100	> 100		> 100	> 100	
COc1cc(C(C#N)NNC(=O)Cc2ccccc2)cc(OC)c1OC (stereo unspecified)	> 100	> 100	> 100	> 100	> 100	> 100	> 100		
Cc1cc(Cl)ccc1NC(=O)C(=O)Cc1ccc([N+](=O)[O-])c([N+](=O)[O-])c1CC(=O)C(=O)Nc1ccc(Cl)cc1C	> 100	> 100		> 100	> 100	> 100	> 100	> 100	
CC(C)c1cccc(C(C)C)c1NC(=O)C(=O)CC(=O)CC(c1ccccc1)c1c(O)c2ccccc2oc1=O (stereo unspecified)		> 100	> 100						
Nc1ccc(C(=O)NN2C(=O)C(Cl)C2c2cc(Br)cc(Br)c2O)cc1 (stereo unspecified)	38.2	25.4	> 100	> 100	> 100	> 100	48.3	> 100	
Fc1ccc2c(c1)SC1Oc3ccccc3-c3c1c-2nn3-c1ccccc1 (stereo unspecified)	> 100	> 100	> 100	> 100	> 100	> 100	> 100	> 100	> 100
COc1cc2c(cc1O)[C@H](C)C(c1ccccc1OC)O2 (stereo partly specified)	> 100	11	> 100	> 100	> 100	27.1	> 100	24	
Cc1ccc(/C=C/C(=O)C(C)C)cc1		> 100	> 100	> 100		> 100	> 100		
COc1cc2c(cc1OC)C(=O)Cc1ccc3c(c1CNCC2)OCO3	> 100	> 100	> 100	> 100		> 100	> 100	> 100	
Cc1nc2nn(Cc3ccccc3)cc2c(=O)o1		> 100	> 100	> 100	> 100	> 100	> 100	> 100	> 100
